The source of these data is US12202808B2, “Substituted antivirals for treating coronavirus infection” (Erasmus University Medical Center Rotterdam, priority 2021, dated 2025).

Read-outs that look alike come from different tables or passages of the source.

Assay [1] concerns SARS-CoV-2. The class given is cell-based. Conditions: bronchiolar organoid-derived cultures, MOI 0.1, 2-72 h p.i., most pronounced at 72 h p.i.
Assay [2] relates to SARS-CoV-2. The class given is cell-based. Conditions: bronchioalveolar organoid-derived cultures, 10 μM, MOI 0.1, 2-72 h p.i.
Assay [3] concerns Bronchiolar organoid-derived cultures. The class given is cell-based, human.

`CO[C@H]1CN(C)C(=O)c2cc(NC(=O)NC(C)C)ccc2OC[C@H](C)N(Cc2ccc(-c3ccccn3)cc2)C[C@@H]1C` [Bafcilin1]: the “inhibition of SARS-CoV-2 replication as compared to the DMSO control” value in assay [1] (1 μM) is given as “inhibited SARS-CoV-2 replication”. In addition, the “inhibition of SARS-CoV-2 replication as compared to the DMSO control” value in assay [1] (10 μM) was “inhibited SARS-CoV-2 replication”. Besides, the “inhibition of SARS-CoV-2 replication” value in assay [2] was “inhibited SARS-CoV-2 replication”. Also, the “GSEA (Enrichr, COVID-19 Related Gene Sets) of treatment affected genes” value in assay [3] (1 μM, 10 μM and common between both treatments) is “significant enrichment of genes upregulated upon SARS-CoV-2 infection”. Besides, the “number of genes affected (differentially expressed) as compared to DMSO” value in assay [3] (1 μM, 24 h treatment) is recorded as 653 genes. Moreover, in assay [3] (10 μM), the “Enrichr analysis of genes downregulated by treatment” value is “enriched for genes upregulated upon SARS-CoV-2 or SARS-CoV-1 infection” and the “Enrichr analysis of genes upregulated by treatment” value is given as “enriched for genes downregulated upon SARS-CoV-2 or MERS-CoV infection”. For the same molecule, the “number of genes differentially expressed in the same direction in both concentration groups” value in assay [3] (common to 1 μM and 10 μM, 24 h treatment) is 437 genes.
